Consider 16 compounds from publication PMC6155662, “Trypanocidal Activity of Quinoxaline 1,4 Di-N-oxide Derivatives as Trypanothione Reductase Inhibitors” (Molecules : A Journal of Synthetic Chemistry and Natural …, 2017).

Data set [1] relates to T. cruzi INC-5 epimastigotes. Briefly: Viability (MTT) assay on T. cruzi epimastigotes. It is filed as cell-based, Trypanosoma cruzi. Particulars: Trypanosoma cruzi, 24 h, mean and SD of triplicate. Here is the method:
In this study, two strains of T. cruzi isolated in Mexico were used. […] Epimastigotes were cultured in vitro in liver infusion-tryptose (LIT) medium supplemented with 10% heat inactivated fetal bovine serum (FBS) (Gibco) and 100 U/mL penicillin-streptomycin (In vitro S.A.), and incubated at 27 °C. CD1 mice, aged 6–8 weeks, were infected with T. cruzi to obtain bloodstream trypomastigote samples.
Viability assays of T. cruzi epimastigotes using 3-(4,5-dimethylthiazol-2-yl)-2,5-diphenyltetrazolium bromide (MTT) were performed. Briefly, the parasites were harvested during the exponential growth phase for a period of five days. In a 96-well microplate 1x10^6 epimastigotes were deposited in brain-heart infusion (BHI) medium supplemented with 10% FBS and 100 U/mL antibiotic-antifungal mixture (Gibco). […] Each well reached a final volume of 100 µL. Each condition was assessed in triplicate. The microplate was incubated for 24 h at 27 °C in darkness. Afterwards, 10 μL of a 5 mg/mL MTT solution was added and the plate was incubated for 20 h at 27 °C. Then 200 μL of 10% dodecyl sulfate (SDS)/0.1% HCl solution was added to dissolve formazan salts; the plate was incubated an additional 4 h. Finally, the plate was read at 570 nm in a spectrophotometer (Multiskan EX Thermo Electron, Taipei, Taiwan). The amount of viable cells was proportional to the amount of formazan produced. […] Later the results were converted to micromolar units. […] As a […] control, parasites were incubated only in culture medium with a 1% DMSO concentration, corresponding to the highest sample dilution of DMSO [34, 35, 36].

A short description of data set [2]: Cytotoxicity assay (Alamar Blue) on macrophages. It is filed as cell-based, murine. To be noted: mouse, J774A.1 macrophages, mean and SD of triplicate. Here is the method:
The murine macrophage cell line J774.A1 was maintained in culture flasks with RPMI 1640 medium supplemented with 10% FBS, 1% MEM-NEAA medium (Gibco) and 100 U/mL antibiotic-antifungal mixture (Gibco). Cells were incubated at 37 °C with 5% CO2 and humidity. Trypsinized J774.A1 macrophages were washed and viability was assessed by the trypan blue dye (Sigma-Aldrich, Toluca, Edo de Mexico, Mexico) exclusion assay. In a 96-well microplate, 50,000 macrophages were seeded per well and a dose-response assay was performed. Compounds were evaluated using six-fold serial dilutions ranging from 100 µg/mL to 0.3 µg/mL of final concentration. Each compound was tested in triplicate. After 20 h incubation, Alamar Blue was added (10% v/v) and cells were incubated for an additional 4 h period. Results were obtained as previously described and CC50 was calculated. As a negative control of cytotoxicity, cells were incubated only in the presence of 0.1% DMSO [39, 40].
(Alamar Blue is a resazurin reagent that responds to reducing activity.)

Data set [3] concerns T. cruzi bloodstream trypomastigotes INC-5 strain. Description: microbe, parasite or virus in culture. It is filed as cell-based. To be noted: Trypanosoma cruzi; for killing at 50 µg/mL: 50 μg/mL, 24 h at 4 °C, infected mouse blood, read-out: % Lysis at 50 μg/mL INC-5 Strain; for CC50: 24 h, bloodstream trypomastigotes, 24 h at 4 °C (called IC50 in abstract), read-out: LC50 INC-5 Strain. On the procedure: (§1) In this study, two strains of T. cruzi isolated in Mexico were used. T. cruzi NINOA strain (MHOM/MX/1994/NINOA) was obtained from a patient with acute Chagas disease and T. cruzi INC-5 (MHOM/MX/1994/INC5) was isolated from a patient in the chronic phase of the disease. Epimastigotes were cultured in vitro in liver infusion-tryptose (LIT) medium supplemented with 10% heat inactivated fetal bovine serum (FBS) (Gibco) and 100 U/mL penicillin-streptomycin (In vitro S.A.), and incubated at 27 °C. CD1 mice, aged 6–8 weeks, were infected with T. cruzi to obtain bloodstream trypomastigote samples. Animal experiments were performed according to Norma Oficial Mexicana (NOM-062-Z00-1999) published on 22 August, 2009.
(§2) CD1 female mice 6–8 weeks old were infected with T. cruzi bloodstream trypomastigotes of the INC-5 and NINOA strains. The course of infection continued for 4–6 weeks. At the peak of parasitemia blood was obtained by cardiac puncture using sodium heparin as an anticoagulant. The blood was adjusted to 1 × 10^6 bloodstream trypomastigotes/mL.
(§3) In each well of the 96-well plate, 195 μL of infected blood and 5 μL of quinoxaline 1,4-di-N-oxide derivatives or reference drug dilutions were seeded, with each well reaching a final volume of 200 µL. Each assay was performed in triplicate. Initially, all compounds were tested at 50 μg/mL. […] As a negative control of lysis, wells with untreated blood trypomastigotes were used, and as a positive control, wells with the reference drugs were used. The microplates were incubated at 4 °C for 24 h. Bloodstream trypomastigotes were quantified by the method of Brener-Pizzi, 5 μL of blood were placed on a slide and covered with a coverslip 13 × 13 mm. The mobile protozoa were counted in 15 fields at 40× magnification using an optical microscope. The percentage lysis was determined by comparing the remaining trypomastigotes against the negative control. LC50 was determined with the Probit statistical tool. The results were later converted to micromolar units.

Data set [4] has as its system T. cruzi bloodstream trypomastigotes NINOA strain. Description: microbe, parasite or virus in culture. Type of data set: cell-based. Particulars: Trypanosoma cruzi; for killing at 50 µg/mL: 50 μg/mL, 24 h at 4 °C, infected mouse blood, read-out: % Lysis at 50 μg/mL NINOA Strain; for LC50: 24 h. On the procedure: as §1, §2, §3

`CC1CS(=O)(=O)CCN1/N=C/c1ccc([N+](=O)[O-])o1` (centres unmarked) [Nfx, nifurtimox, reference compound]: in data set [1], the IC50 came out at 8.74 ± 3.8 µM. In data set [2], this compound came in with a CC50 at 24 h of 201 ± 12.5 µM. The killing at 50 µg/mL in data set [3] was found to be 62.6 ± 3.9%; in data set [4], 67.3 ± 5.4%.

Take `CCCOC(=O)c1ccc2c(c1)[n+]([O-])c(C(=O)Nc1ccccc1)c(C)[n+]2[O-]` [Compound T-125, n-Propyl 2-phenylamide-3-methylquinoxaline-7-carboxylate 1,4-di-N-oxide]: the 50% inhibitory concentration (IC50) in data set [1] was greater than 130 µM. In data set [2], this compound had a CC50 at 24 h greater than 261 µM. Also, the killing at 50 µg/mL in data set [3] came to 0%; in data set [4] it was 35.6 ± 3.6%.

Regarding `CCCOC(=O)c1ccc2c(c1)[n+]([O-])c(C(=O)c1cccs1)c(C(F)(F)F)[n+]2[O-]` [Compound T-089, n-Propil 2-(thiophene-2-carbonyl)-3-trifluoromethylquinoxaline-7-carboxylate 1,4-di-N-oxide], the IC50 in data set [1] was 7.59 ± 1.4 µM. Besides, in data set [2], the CC50 at 24 h is 7.71 ± 0.7 µM. Further, in data set [3], the CC50 is 122 ± 6.5 µM and the killing at 50 µg/mL is 42 ± 6.5%. In data set [4], the LC50 amounted to 115 ± 8.4 µM and the killing at 50 µg/mL worked out at 51.6 ± 3.4%.

As to `CC(C)OC(=O)c1ccc2c(c1)[n+]([O-])c(C(=O)c1cccs1)c(C(F)(F)F)[n+]2[O-]` [Compound T-069, Isopropyl 2-(thiophene-2-carbonyl)-3-trifluoromethylquinoxaline-7-carboxylate 1,4-di-N-oxide], the IC50 in data set [1] was 4.95 ± 0.5 µM. In data set [2], this compound showed a CC50 at 24 h of 12.8 ± 0.6 µM. Besides, in data set [3], the CC50 is 111 ± 9.3 µM and the killing at 50 µg/mL came to 77.7 ± 9.3%. For the same compound, in data set [4], the LC50 worked out at 98 ± 6.1 µM and the killing at 50 µg/mL was determined as 57.3 ± 2.8%.

Compound `CC(C)OC(=O)c1ccc2c(c1)[n+]([O-])c(C(=O)c1ccccc1)c(C(F)(F)F)[n+]2[O-]` [Compound T-071, Isopropyl 2-benzoyl-3-trifluoromethylquinoxaline-7-carboxylate 1,4-di-N-oxide] yielded an IC50 in data set [1] of 4.03 ± 0.5 µM. In data set [2], this compound came in with a CC50 at 24 h of 6.7 ± 0.8 µM. In data set [3], the CC50 is 103 ± 8.3 µM and the killing at 50 µg/mL was determined as 69.2 ± 5.1%. In data set [4], the LC50 was 97.8 ± 6.3 µM and the killing at 50 µg/mL came out at 58.8 ± 4.4%.

`CCCOC(=O)c1ccc2c(c1)[n+]([O-])c(C(=O)OC)c(C)[n+]2[O-]` [Compound T-088, n-Propil methyl-3-methylquinoxaline-2,7-dicarboxylate 1,4-di-N-oxide] yielded an IC50 in data set [1] of 139 ± 13.5 µM. In data set [2], this compound had a CC50 at 24 h of 143 ± 9.7 µM. Also, the killing at 50 µg/mL in data set [3] worked out at 33.6 ± 6.8%; in data set [4], 16.3 ± 11.1%.

Take `Cc1c(C(=O)OC(C)(C)C)[n+]([O-])c2cc(C(=O)OC(C)C)ccc2[n+]1[O-]` [Compound T-066, Isopropyl tert-butyl-3-methylquinoxaline-2,7-dicarboxylate 1,4-di-N-oxide]: the IC50 in data set [1] was greater than 137 µM. The CC50 at 24 h in data set [2] was greater than 273 µM. Besides, the figures for the killing at 50 µg/mL in data set [3] and in data set [4] were 5.4 ± 3.7% and 2.6 ± 4.3%, respectively.

Consider `CC(C)OC(=O)c1ccc2c(c1)[n+]([O-])c(C(=O)C(C)(C)C)c(C(C)(C)C)[n+]2[O-]` [Compound T-107, Isopropyl 2-(tert-butyl-2-carbonyl)-3-tert-butylquinoxaline-7-carboxylate 1,4-di-N-oxide], for which 91.7 ± 10.5 µM corresponded to half-maximal inhibition in data set [1] (IC50). The compound also returned a CC50 at 24 h in data set [2] of 164 ± 7.7 µM. Further, the killing at 50 µg/mL in data set [3] worked out at 5.32 ± 3.8%; in data set [4] it was 6.28 ± 4.7%.

As to `Cc1c(C(N)=O)[n+]([O-])c2cc(C(=O)OC(C)C)ccc2[n+]1[O-]` [Compound T-108, Isopropyl 2-amide-3-methyl-quinoxaline-7-carboxilate 1,4-di-N-óxide], the half-maximal inhibitory concentration (IC50) in data set [1] turned out to be 131 ± 12.3 µM. The compound further gave a CC50 at 24 h in data set [2] of 221 ± 9.4 µM. For the same compound, the figures for the killing at 50 µg/mL in data set [3] and in data set [4] were 18.8 ± 2.8% and 12.8 ± 7.2%, respectively.

The compound `CC(=O)c1c(C(F)(F)F)[n+]([O-])c2ccc(C(=O)OC(C)C)cc2[n+]1[O-]` [Compound T-070, Isopropyl 2-acetyl-3-trifluoromethylquinoxaline-7-carboxylate 1,4-di-N-oxide] returned a concentration for half-maximal inhibition (IC50) in data set [1] of 2.83 ± 0.7 µM. The compound also gave a CC50 at 24 h in data set [2] of 17.5 ± 0.7 µM. Moreover, the figures for the killing at 50 µg/mL in data set [3] and in data set [4] were 10.8 ± 5.4% and 46 ± 2.7%, respectively.

Take `CCOC(=O)c1c(C(F)(F)F)[n+]([O-])c2ccc(C(=O)OC(C)C)cc2[n+]1[O-]` [Compound T-116, Isopropyl ethyl-3-trifluoromethylquinoxaline-2,7-dicarboxylate 1,4-di-N-oxide]: in data set [1], it took 5.2 ± 2.1 µM to reach half-maximal inhibition (IC50). In data set [2], this compound returned a CC50 at 24 h of 14.5 ± 0.8 µM. Further, the killing at 50 µg/mL in data set [3] was 17.6 ± 2.6%; in data set [4], 49.9 ± 4%.

For the compound `CCOC(=O)Cc1c(C(=O)OCC)[n+]([O-])c2cc(C(=O)OC(C)C)ccc2[n+]1[O-]` [Compound T-067, Isopropyl ethyl-3-(2-ethoxy-2-oxoethyl) quinoxaline-2,7-dicarboxylate 1,4-di-N-oxide], in data set [1], the half-inhibitory concentration (IC50) worked out at 12.1 ± 0.4 µM. In data set [2], this compound had a CC50 at 24 h of 44.4 ± 7.1 µM. The killing at 50 µg/mL in data set [3] is 14.4 ± 9.2%; in data set [4], 18.5 ± 2.2%.

`Cc1c(C(=O)Nc2ccccc2)[n+]([O-])c2cc(C(=O)OC(C)C)ccc2[n+]1[O-]` [Compound T-097, Isopropyl 2-phenylamide-3-methylquinoxaline-7-carboxylate 1,4-di-N-oxide] returned a half-inhibitory concentration (IC50) in data set [1] greater than 130 µM. Besides, the CC50 at 24 h in data set [2] was greater than 261 µM. In addition, the killing at 50 µg/mL in data set [3] is 12.4 ± 5.2%; in data set [4], 12.2 ± 10.9%.

With `COC(=O)c1c(C)[n+]([O-])c2ccc(C(=O)OC(C)C)cc2[n+]1[O-]` [Compound T-064, Isopropyl methyl-3-methyl-quinoxaline-2,7-dicarboxylate 1,4-di-N-oxide], the IC50 in data set [1] worked out at 43.7 ± 8.6 µM. For the same compound, the CC50 at 24 h in data set [2] turned out to be 135 ± 11.1 µM. In addition, the killing at 50 µg/mL in data set [3] came to 1.7 ± 2%; in data set [4] it was 3.2 ± 2%.

In data set [1], `O=C(Cn1ccnc1[N+](=O)[O-])NCc1ccccc1` [Bnz, benznidazole, reference compound] displayed an IC50 of 42.3 ± 5.76 µM. In data set [2], the CC50 at 24 h was found to be 352 ± 17.1 µM. Moreover, in data set [3], the CC50 came to 85.3 ± 16.7 µM and the killing at 50 µg/mL came out at 53.5 ± 5.6%. In addition, the killing at 50 µg/mL in data set [4] turned out to be 58.1 ± 4.5%.

As for `CC(C)OC(=O)c1ccc2c(c1)[n+]([O-])c(C(=O)c1ccco1)c(C(F)(F)F)[n+]2[O-]` [Compound T-073, Isopropyl 2-(furyl-2-carbonyl)-3-trifluoromethylquinoxaline-7-carboxylate 1,4-di-N-oxide], in data set [1], the half-inhibitory concentration (IC50) was found to be 33.7 ± 9.2 µM. The compound also yielded a CC50 at 24 h in data set [2] of 55.4 ± 2.9 µM. For the same compound, the killing at 50 µg/mL in data set [3] was 22.1 ± 4.32%; in data set [4], 35 ± 4.5%.

Usually IC50 stands for the concentration at which inhibition is half-maximal. By LC50 is commonly meant the concentration that kills 50% of the test population. A low value points to a more lethal substance.
